We go through 37 molecules from patent US5189043A, “Isoquinolone derivatives, their production and use” (Takeda Chemical Industries, Ltd., priority 1989, dated 1993).

One test concerns the target T1, HMG-CoA reductase of rat's liver microsome (Rattus norvegicus, UniProt P51639).
T1 construct: from tissue; host or cells: liver microsomes of male Sprague-Dawley rats fed 5% cholestyramine diet for 5 days
T1 sequence (P51639 1-887): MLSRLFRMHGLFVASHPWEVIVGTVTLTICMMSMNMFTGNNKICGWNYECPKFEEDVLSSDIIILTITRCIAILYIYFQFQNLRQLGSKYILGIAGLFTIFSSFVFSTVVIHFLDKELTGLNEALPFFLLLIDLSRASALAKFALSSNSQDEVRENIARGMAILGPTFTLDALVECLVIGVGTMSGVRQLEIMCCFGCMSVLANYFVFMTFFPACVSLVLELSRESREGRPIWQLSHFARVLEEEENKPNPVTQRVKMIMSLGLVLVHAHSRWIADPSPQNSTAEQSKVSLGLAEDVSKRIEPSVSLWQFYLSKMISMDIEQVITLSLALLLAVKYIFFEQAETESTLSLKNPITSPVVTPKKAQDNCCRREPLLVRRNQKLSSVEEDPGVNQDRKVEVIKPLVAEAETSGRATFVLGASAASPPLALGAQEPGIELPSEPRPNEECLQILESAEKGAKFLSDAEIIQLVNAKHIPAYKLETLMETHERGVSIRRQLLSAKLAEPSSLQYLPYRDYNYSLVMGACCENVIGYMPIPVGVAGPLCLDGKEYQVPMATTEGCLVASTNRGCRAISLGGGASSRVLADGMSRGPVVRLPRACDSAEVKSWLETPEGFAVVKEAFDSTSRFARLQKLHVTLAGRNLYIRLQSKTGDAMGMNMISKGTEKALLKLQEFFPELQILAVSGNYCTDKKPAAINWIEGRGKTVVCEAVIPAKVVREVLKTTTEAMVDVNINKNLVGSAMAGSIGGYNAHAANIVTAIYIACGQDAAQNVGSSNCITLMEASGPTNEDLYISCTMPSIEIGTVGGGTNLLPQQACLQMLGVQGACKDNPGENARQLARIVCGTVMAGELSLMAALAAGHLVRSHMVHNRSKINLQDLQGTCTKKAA
In words: Inhibitory action for HMG-CoA reductase of rat's liver microsome. It is filed as biochemical, male Sprague-Dawley rats. The conditions noted are these: 0.5 h; at 10-^6 M; rat liver microsome (cholestyramine-fed), d,l-[3-^14 C]-HMG-CoA 0.5 mM, NADPH 20 mM, 37° C. 30 minutes. As to the method: Inhibitory action for HMG-CoA reductase of rat's liver microsome
5% cholestyramine diet was fed to male Sprague-Dawley rats (300-400 g of body weight) for 5 days. Activity for HMG-CoA reductase of liver microsome was measured by a variant of the method of Shapiro et al [Biochem. Biophys. Acta 370, 36(1974)]. In this method, the enzyme activity is determined by measuring the formation of ^14 C-mevalonate from a substrate [3^14 C]-HMG-CoA in the presence of NADPH. ^14 C-Mevalonate is converted into its lactone which can be isolated by silica gel thin layer chromatography developing with benzene: acetone (50:50).
In order to measure inhibitory action for HMG-CoA reductase, test compound was dissolved in dimethyl sulfoxide and the solution was diluted with a buffer solution (100 mM phosphate buffer, 20 mM EDTA.2Na, […] dithioethritol).
The resulting mixture was incubated with microsome (120 μg protein) at 30° C. for 15 minutes, and further incubated at 37° C. for 30 minutes after addition of d,l-[3-^14 C]-HMG-CoA (0.5 mM, 5000 dpm/nmol) and NADPH (20 mM).
As to `O=C(O)C[C@H](O)C[C@H](O)/C=C/c1c(-c2ccc(F)cc2)n(Cc2ccccc2)c(=O)c2ccccc12` (relative stereo) [Example 24-2], the inhibition at 1 µM worked out at 89.6%.

As to `O=C(O)C[C@H](O)C[C@H](O)/C=C/c1c(-c2ccc(F)cc2)n(CCc2ccc(F)cc2)c(=O)c2ccccc12` (relative stereo) [Example 35-2], the inhibition at 1 µM was found to be 96.9%. In turn, `CSCCn1c(-c2ccc(F)cc2)c(/C=C/[C@@H](O)C[C@@H](O)CC(=O)O)c2ccccc2c1=O` (relative stereo) [Example 42-2] registered an inhibition at 1 µM of 94.1%. With `Cc1ccc(CCn2c(-c3ccc(F)cc3)c(/C=C/[C@@H](O)C[C@@H](O)CC(=O)O)c3ccccc3c2=O)cc1` (relative stereo) [Example 36-2], the inhibition at 1 µM amounted to 93.2%. Turning to `Cn1c(-c2ccc(F)cc2)c(/C=C/[C@@H](O)C[C@@H](O)CC(=O)O)c2ccccc2c1=O` (relative stereo) [Example 14-2], testing at 1 µM gave an inhibition of 94%. In turn, `O=C(O)C[C@H](O)C[C@H](O)/C=C/c1c(-c2ccc(F)cc2)n(CCc2ccc(Cl)cc2)c(=O)c2ccccc12` (relative stereo) [Example 33-2] displayed an inhibition at 1 µM of 95.7%. As to `O=C(O)C[C@H](O)C[C@H](O)/C=C/c1c(-c2ccc(F)cc2)n(CCCc2ccccc2)c(=O)c2ccccc12` (relative stereo) [Example 32-2], at 1 µM the inhibition was 89.6%. As to `CCCCn1c(-c2ccc(F)cc2)c(/C=C/[C@@H](O)C[C@@H](O)CC(=O)OC)c2ccccc2c1=O` (relative stereo) [Example 17-1], the inhibition at 1 µM is 93.4%. With `COc1ccc(CCn2c(-c3ccc(F)cc3)c(/C=C/[C@@H](O)C[C@@H](O)CC(=O)O)c3ccccc3c2=O)cc1` (relative stereo) [Example 37-2], the inhibition at 1 µM was 96.2%.

Consider `CCOC(=O)C[C@H](O)C[C@H](O)/C=C/c1c(-c2ccc(F)cc2)n(C)c(=O)c2ccccc12` (relative stereo) [Example 14-1], for which 1 µM produced 91.1% inhibition. `CC(C)n1c(-c2ccc(F)cc2)c(/C=C/[C@@H](O)C[C@@H](O)CC(=O)O)c2c(c1=O)CCCC2` (relative stereo) [Example 47-2] registered an inhibition at 1 µM of 93.3%. Take `CC(C)n1c(-c2ccc(F)cc2)c(/C=C/[C@@H](O)C[C@@H](O)CC(=O)O)c2ccccc2c1=O` (relative stereo) [Example 2-2, Sodium [3R*,5S*(E)]-7-[1,2-dihydro-3-(4-fluorophenyl)-2-(1-methylethyl)-1-oxo-4-isoquinolinyl]-3,5-dihydroxy-6-heptenoate]: the inhibition at 1 µM is 91.2%.

Molecule `O=C(O)C[C@H](O)C[C@H](O)/C=C/c1c(-c2ccc(F)cc2)n(CCc2ccccc2)c(=O)c2ccccc12` (relative stereo) [Example 13-2] registered an inhibition at 1 µM of 95.1%. On the same count and under the same terms, with `CCCCn1c(-c2ccc(F)cc2)c(/C=C/[C@@H](O)C[C@@H](O)CC(=O)O)c2ccccc2c1=O` (relative stereo) [Example 17-2] the figure was 95.8%; with `C=CCn1c(-c2ccc(F)cc2)c(/C=C/[C@@H](O)C[C@@H](O)CC(=O)O)c2ccccc2c1=O` (relative stereo) [Example 43-2], 90.6%; with `COc1cc(F)ccc1-c1c(/C=C/[C@@H](O)C[C@@H](O)CC(=O)O)c2ccccc2c(=O)n1C(C)C` (relative stereo) [Example 1-2, Sodium [3R*,5S*(E)]-7-[1,2-dihydro-3-(4-fluoro-2-methoxyphenyl-2-(1-methylethyl)-1-oxo-4-isoquinolinyl]-3,5-dihydroxy-6-heptenoate], 92%. `CCCn1c(-c2ccc(F)cc2)c(/C=C/[C@@H](O)C[C@@H](O)CC(=O)O)c2c(c1=O)CCCC2` (relative stereo) [Example 48-2] displayed an inhibition at 1 µM of 96.6%. The molecule `CCn1c(-c2ccc(F)cc2)c(/C=C/[C@@H](O)C[C@@H](O)CC(=O)OC)c2ccccc2c1=O` (relative stereo) [Example 15-1] had an inhibition at 1 µM of 94.2%. As for `CCCn1c(-c2ccc(F)cc2C)c(/C=C/[C@@H](O)C[C@@H](O)CC(=O)O)c2ccccc2c1=O` (relative stereo) [Example 10-2], the inhibition at 1 µM was determined as 90.4%.

With `CCCCCn1c(-c2ccc(F)cc2)c(/C=C/[C@@H](O)C[C@@H](O)CC(=O)OC)c2ccccc2c1=O` (relative stereo) [Example 18-1], the inhibition at 1 µM came to 90.7%. For the molecule `O=C(O)C[C@H](O)C[C@H](O)/C=C/c1c(-c2ccc(F)cc2)n(CCc2cccc(F)c2)c(=O)c2ccccc12` (relative stereo) [Example 39-2], the inhibition at 1 µM is 91.7%. The same measure, in the same setting: the same measure for `CCCn1c(-c2ccc(F)cc2F)c(/C=C/[C@@H](O)C[C@@H](O)CC(=O)O)c2ccccc2c1=O` (relative stereo) [Example 11-2]: 90.9%; for `Cc1cc(F)ccc1-c1c(/C=C/[C@@H](O)C[C@@H](O)CC(=O)O)c2ccccc2c(=O)n1C(C)C` (relative stereo) [Example 5-2]: 90.4%; for `CCCCCn1c(-c2ccc(F)cc2)c(/C=C/[C@@H](O)C[C@@H](O)CC(=O)O)c2ccccc2c1=O` (relative stereo) [Example 18-2]: 96.5%. Take `O=C(O)C[C@H](O)C[C@H](O)/C=C/c1c(-c2ccc(F)cc2)n(CCc2ccccc2F)c(=O)c2ccccc12` (relative stereo) [Example 40-2]: the inhibition at 1 µM stood at 92.6%. On the same count and under the same terms, the same measure for `CCCn1c(-c2ccc(F)cc2)c(/C=C/[C@@H](O)C[C@@H](O)CC(=O)O)c2ccccc2c1=O` (relative stereo) [Example 16-2]: 96.2%. Molecule `CC(C)Cn1c(-c2ccc(F)cc2)c(/C=C/[C@@H](O)C[C@@H](O)CC(=O)O)c2ccccc2c1=O` (relative stereo) [Example 21-2] registered an inhibition at 1 µM of 95%.

On to `COC(=O)C[C@H](O)C[C@H](O)/C=C/c1c(-c2ccc(F)cc2)n(CCc2ccccc2)c(=O)c2ccccc12` (relative stereo) [Example 13-1], for which the inhibition at 1 µM came out at 89.6%. On to `CCCn1c(-c2ccc(F)cc2)c(/C=C/[C@@H]2C[C@@H](O)CC(=O)O2)c2ccccc2c1=O` [Example 49-3], for which the inhibition at 1 µM turned out to be 92.5%.

On to `CCCn1c(-c2ccc(F)cc2)c(/C=C/[C@@H](O)C[C@@H](O)CC(=O)O)c2ccccc2c1=O` [Example 49-2, Sodium [3R, 5S(E)]-7-[1,2-dihydro-3-(4-fluorophenyl)-2-propyl-1-oxo-4-isoquinolinyl]-3,5-dihydroxy-6-heptenoate], for which at 1 µM the inhibition was 97.1%. Turning to `COc1ccccc1CCn1c(-c2ccc(F)cc2)c(/C=C/[C@@H](O)C[C@@H](O)CC(=O)O)c2ccccc2c1=O` (relative stereo) [Example 38-2], the inhibition at 1 µM turned out to be 95.9%. For `CCCn1c(-c2ccc(F)cc2)c(/C=C/[C@@H](O)C[C@@H](O)CC(=O)OCC)c2ccccc2c1=O` (relative stereo) [Example 16-1], the inhibition at 1 µM was 94.2%.

Take `CCn1c(-c2ccc(F)cc2)c(/C=C/[C@@H](O)C[C@@H](O)CC(=O)O)c2ccccc2c1=O` (relative stereo) [Example 15-2]: at 1 µM the inhibition was 96.1%.

`CCCCCCCn1c(-c2ccc(F)cc2)c(/C=C/[C@@H](O)C[C@@H](O)CC(=O)O)c2ccccc2c1=O` (relative stereo) [Example 19-2] gave an inhibition at 1 µM of 88%. Turning to `COCCn1c(-c2ccc(F)cc2)c(/C=C/[C@@H](O)C[C@@H](O)CC(=O)O)c2ccccc2c1=O` (relative stereo) [Example 41-2], the inhibition at 1 µM turned out to be 88.2%. As for `COC(=O)C[C@H](O)C[C@H](O)/C=C/c1c(-c2ccc(F)cc2)n(CC(C)C)c(=O)c2ccccc12` (relative stereo) [Example 21-1], 1 µM produced 91.3% inhibition.

Staying with this test, now noted: at 10-^6 M; rat liver microsome (cholestyramine-fed), d,l-[3-^14 C]-HMG-CoA 0.5 mM, NADPH 20 mM, 37° C. 30 minutes.
For `CC[C@H](C)C(=O)O[C@H]1C[C@@H](C)C=C2C=C[C@H](C)[C@H](CC[C@@H]3C[C@@H](O)CC(=O)O3)[C@H]21` [Mevinolin, reference compound], the “Inhibition (%)” value amounted to 75.5%.
